Source: ChEMBL document CHEMBL1201862, “PubChem BioAssay data set” (2004)
Activity calls are given as the source filed them.

How the values were obtained:
[1] = molecular target: T1, Rac GTPase-activating protein 1 (Homo sapiens, UniProt Q9H0H5); assay: MgcRacGAP GTPase-activating activity inhibitors, confirmation, biochemical, ADP Hunter fluorescence, primary and confirmatory (AID 624330); assay type: functional
T1 sequence (Q9H0H5 whole entry): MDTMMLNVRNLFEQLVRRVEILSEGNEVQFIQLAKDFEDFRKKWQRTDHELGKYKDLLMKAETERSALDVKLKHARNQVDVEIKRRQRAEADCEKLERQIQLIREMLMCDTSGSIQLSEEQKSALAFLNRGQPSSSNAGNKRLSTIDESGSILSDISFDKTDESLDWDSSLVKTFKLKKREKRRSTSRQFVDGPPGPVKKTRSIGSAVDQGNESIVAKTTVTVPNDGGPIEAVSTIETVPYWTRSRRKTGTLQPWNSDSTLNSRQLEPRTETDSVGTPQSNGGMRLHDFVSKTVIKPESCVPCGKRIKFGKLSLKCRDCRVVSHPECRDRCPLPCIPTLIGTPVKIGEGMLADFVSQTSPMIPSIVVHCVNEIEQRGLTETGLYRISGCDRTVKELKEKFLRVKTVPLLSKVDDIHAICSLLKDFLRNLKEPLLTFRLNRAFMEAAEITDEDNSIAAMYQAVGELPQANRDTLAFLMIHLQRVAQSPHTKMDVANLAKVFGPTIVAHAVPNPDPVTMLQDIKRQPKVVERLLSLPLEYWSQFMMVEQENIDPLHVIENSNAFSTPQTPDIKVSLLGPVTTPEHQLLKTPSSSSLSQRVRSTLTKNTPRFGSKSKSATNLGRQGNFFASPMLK

[2] = molecular target: Cytochrome P450 2C19 (Homo sapiens, UniProt P33261); assay: Cytochrome panel assay with activity outcomes. Panel member name: p450-cyp2c19 Compounds with AC50 equal or less than 10 uM are considered active; assay type: functional
[3] = molecular target: Cytochrome P450 2C9 (Homo sapiens, UniProt P11712)
[4] = growth suppression of PTEN-null colon cells, dose response, cell-based, HCT116 PTEN knockout (AID 1047); assay type: functional;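 also: HCT116 colon tumor cells with PTEN knocked out; cells exposed to compound for 60 hours before readout; potency for loss of cell viability measured by luminescence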
[5] = growth suppression of beta-catenin-knockout colon cells, dose response, cell-based, HCT116, human colon tumor (AID 1045); assay type: functional;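 also: HCT116 colon tumor cells with beta catenin knocked out; cells exposed to compound for 60 hours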
[6] = molecular target: T2, Cytochrome P450 1A2 (Homo sapiens, UniProt P05177);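 also: PubChem cytochrome P450 panel assay, CYP1A2 panel member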
T2 sequence (P05177 whole entry): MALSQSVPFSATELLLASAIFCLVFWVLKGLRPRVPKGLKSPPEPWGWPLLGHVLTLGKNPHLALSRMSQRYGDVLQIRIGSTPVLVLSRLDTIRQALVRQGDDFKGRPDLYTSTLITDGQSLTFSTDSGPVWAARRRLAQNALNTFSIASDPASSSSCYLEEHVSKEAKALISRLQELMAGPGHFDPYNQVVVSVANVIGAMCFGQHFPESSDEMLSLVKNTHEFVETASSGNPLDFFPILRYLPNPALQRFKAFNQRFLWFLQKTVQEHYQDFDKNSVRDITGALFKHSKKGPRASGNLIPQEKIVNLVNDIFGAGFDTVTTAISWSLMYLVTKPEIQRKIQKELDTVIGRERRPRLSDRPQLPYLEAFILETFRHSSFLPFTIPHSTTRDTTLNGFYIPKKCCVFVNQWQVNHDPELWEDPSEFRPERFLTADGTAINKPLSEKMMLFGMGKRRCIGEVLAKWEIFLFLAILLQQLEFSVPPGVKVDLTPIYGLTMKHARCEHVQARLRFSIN

[7] = test system: Streptococcus sp. 'group A'; assay: growth inhibition of control SK(-) GAS strain, dose response, counter-screen for streptokinase expression inhibitor project, luminescence, kanamycin, BacTiterGlo, confirmation (AID 1900); assay type: functional, organism-based
[8] = test system: Streptococcus; assay: Group A Streptococcus viability loss, dose response, counter-screen for streptokinase expression inhibitor project, luminescence, BacTiterGlo (AID 1915); assay type: functional, organism-based;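 also: potency for reduction of bacterial viability or growth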
[9] = inhibitors of firefly luciferase expression or activity, dose response, H4 neuroglioma cells, luminescence (AID 1990); assay type: functional, cell-based
[10] = Luminescence Cell-Based Dose Response HTS to Identify Inhibitors of 5'UTR Stem-Loop Driven Prion Protein mRNA Translation in H4 Neuroglioblastoma Cells. [Related pubchem assays: 1827 (Project Summary), 1813 (Primary HTS)]; assay type: functional
[11] = inhibitors of SNCA 5'UTR-driven reporter translation, confirmation, H4 neuroglioma cells, luminescence (AID 1988); assay type: functional, cell-based

Sequence of Cytochrome P450 2C19 (P33261 whole entry): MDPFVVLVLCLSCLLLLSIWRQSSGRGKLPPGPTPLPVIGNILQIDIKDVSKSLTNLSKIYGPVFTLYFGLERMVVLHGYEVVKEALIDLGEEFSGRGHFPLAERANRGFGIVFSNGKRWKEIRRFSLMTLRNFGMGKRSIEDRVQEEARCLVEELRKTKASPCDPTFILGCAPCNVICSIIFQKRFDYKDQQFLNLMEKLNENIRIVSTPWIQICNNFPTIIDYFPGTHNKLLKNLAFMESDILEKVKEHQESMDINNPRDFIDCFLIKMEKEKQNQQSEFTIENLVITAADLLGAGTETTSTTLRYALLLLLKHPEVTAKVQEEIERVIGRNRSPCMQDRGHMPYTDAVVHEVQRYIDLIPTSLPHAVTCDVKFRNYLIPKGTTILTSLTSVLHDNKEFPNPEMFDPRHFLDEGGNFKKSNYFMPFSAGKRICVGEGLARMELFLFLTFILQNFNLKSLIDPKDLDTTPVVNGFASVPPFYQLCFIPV
Sequence of Cytochrome P450 2C9 (P11712 whole entry): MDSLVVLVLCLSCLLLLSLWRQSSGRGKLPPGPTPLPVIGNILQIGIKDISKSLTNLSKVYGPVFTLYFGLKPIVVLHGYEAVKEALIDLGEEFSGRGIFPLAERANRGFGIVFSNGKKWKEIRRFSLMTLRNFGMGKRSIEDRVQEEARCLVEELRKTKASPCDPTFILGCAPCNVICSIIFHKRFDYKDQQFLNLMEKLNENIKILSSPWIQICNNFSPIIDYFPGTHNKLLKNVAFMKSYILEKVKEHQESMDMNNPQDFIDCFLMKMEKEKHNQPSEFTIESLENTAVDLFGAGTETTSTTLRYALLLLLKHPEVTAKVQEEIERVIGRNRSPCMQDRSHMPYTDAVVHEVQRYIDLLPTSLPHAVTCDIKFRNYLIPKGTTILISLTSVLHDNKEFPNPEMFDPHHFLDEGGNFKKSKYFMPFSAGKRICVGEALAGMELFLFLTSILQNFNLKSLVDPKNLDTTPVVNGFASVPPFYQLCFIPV

## CCC(=O)Nc1ccc(Nc2ccccc2)cc1
[1]
  IC50: 53.6 µM (active)

## c1cncc(-c2nc(NCc3cccs3)c3ccccc3n2)c1
[2]; read-out: AC50
  AC50: 5.01 µM (inconclusive)
[3]
  AC50: 1 µM (inconclusive)

## CCOC(=O)c1[nH]c2c(c1-c1ccccc1)C(=O)CC(c1ccc(OC)c(OC)c1)C2 (stereo not given)
[4]
  EC50: 54 µM (active)
[5]
  EC50: 69.1 µM (active)

## O[C@@H]1[C@H](O)[C@H]2[C@@H](O)CCN2C[C@@H]1O
[2]; read-out: AC50
  AC50: 39.8 µM (inconclusive)
[6]
  AC50: 31.6 µM (inconclusive)
[3]
  AC50: 25.1 µM (inconclusive)

## Cc1ncc([N+](=O)[O-])n1CCOC(=O)NC(NCc1ccccc1)C(Cl)(Cl)Cl (stereo not given)
[2]; read-out: AC50
  AC50: 14.1 µM (inconclusive)
[6]
  AC50: 25.1 µM (inconclusive)
[3]
  AC50: 12.6 µM (inconclusive)

## COc1cc(/C=N/Nc2nc3ccccc3s2)ccc1O
[1]
  IC50: 69.6 µM (active)

## Cc1ccc(Nc2nc(N)nc(CN3CCN(Cc4ccc5c(c4)OCO5)CC3)n2)cc1Cl
[4]
  EC50: 18 µM (active)
[5]
  EC50: 15.9 µM (active)

## C[C@@H]1CCc2cc(F)cc3c(=O)c(C(=O)O)cn1c23
[6]
  AC50: 12.6 µM (inconclusive)

## CCC(CC)C(=O)NC1CCSC1=O (stereo not given)
[2]
  AC50: inconclusive
[6]
  AC50: 39.8 µM (inconclusive)

## CC1(C)Cc2c(c(-c3ccco3)nc3sc4c(NCCN5CCOCC5)ncnc4c23)CO1
[4]
  EC50: 8.46 µM (active)
[5]
  EC50: 16.2 µM (active)

## S=C(NCCN1CCOCC1)Nc1ccc(Nc2ccccc2)cc1
[1]
  IC50: 129 µM (active)

## COCCn1c(=O)c(-c2cn(C)c3ccccc23)nc2cncnc21
[2]; read-out: AC50
  AC50: 25.1 µM (inconclusive)
[3]
  AC50: 10 µM (inconclusive)

## Cc1cccc(C(=N)NOC(=O)CCCN2C(=O)c3ccccc3C2=O)c1
[2]
  AC50: inconclusive
[3]
  AC50: 3.98 µM (inconclusive)

## COCC(=O)Nc1ccc(-c2cn3cccnc3n2)cc1
[2]; read-out: AC50
  AC50: 3.98 µM (inconclusive)
[3]
  AC50: 6.31 µM (inconclusive)

## CN(C)C(=O)c1ccc(-c2cc(Nc3ccccc3)ncn2)cc1
[6]
  AC50: 12.6 µM (inconclusive)

## Cc1ccc(Cc2cnc(N3C(=N)SC(c4ccccc4)C3=O)s2)cc1 (stereo not given)
[7]
  EC50: 0.181 µM (active)
[8]
  EC50: 5.16 µM (active)

## OCCCCNc1cccc2ccccc12
[1]
  IC50: 22.8 µM (active)

## Nc1nc(NCCOCCO)nc(N2CCCCCC2)c1[N+](=O)[O-]
[7]
  EC50: 5.73 µM (active)
[8]
  EC50: 8.6 µM (active)

## CCCCn1cnc2c(SC)ncnc21
[6]
  AC50: 3.16 µM (inconclusive)

## CCN1C(=O)[C@H]2[C@@H](c3ccc(-c4ccc(F)cc4)c(OC)c3)N[C@@](CC(C)C)(C(=O)OC)[C@H]2C1=O
[9]
  EC50: 17.2 µM (active)
[10]
  EC50: 26.4 µM (active)
[11]
  EC50: 13.9 µM (active)

## COc1ccc(-c2cc(=O)oc3cc(OCC(=O)c4cccc([N+](=O)[O-])c4)ccc23)cc1
[4]
  EC50: 24.9 µM (active)
[5]
  EC50: 21.8 µM (active)

## COc1ccc(CN2CCN(Cc3ccc(Br)cc3)CC2)c(OC)c1OC
[1]
  IC50: 70.2 µM (active)

## Cc1ccn2c(S)nnc2c1
[1]
  IC50: 19.4 µM (active)
